For series [1], the system named is Meloidogyne incognita egg/larvae suspension. Nature of the series: Meloidogyne test. Conditions: 20 ppm active compound, lettuce in sand, nematicidal action by gall formation. Format: in vivo. On the procedure:
To produce a suitable preparation of active compound, 1 part by weight of active compound is mixed with the stated amounts of solvent and emulsifier, and the concentrate is diluted with water to the desired concentration.
Containers are filled with sand, solution of active compound, Meloidogyne incognita egg/larvae suspension and lettuce seeds. The lettuce seeds germinate and the plants develop. On the roots, galls are formed.
After the desired period of time, the nematicidal action is determined in % by gall formation. 100% means that no galls were found; 0% means that the number of galls on the treated plants corresponds to that of the untreated control.

In series [2] the test system is caterpillars of the armyworm (Spodoptera frugiperda). Nature of the series: Spodoptera frugiperda test. Particulars: 168 h, read-out: Efficacy in % after 7 d; for pest or weed control at 100 ppm: 100 ppm active compound. The format is in vivo. As for the experimental part:
Spodoptera Frugiperda Test
(§1) To produce a suitable preparation of active compound, 1 part by weight of active compound is mixed with the stated amounts of solvent and emulsifier, and the concentrate is diluted with emulsifier-containing water to the desired concentration.
Cabbage leaves (Brassica oleracea) are treated by being dipped into the preparation of active compound of the desired concentration and are populated with caterpillars of the armyworm (Spodoptera frugiperda) while the leaves are still moist.
(§2) After the desired period of time, the kill in % is determined. 100% means that all caterpillars have been killed; 0% means that none of the caterpillars have been killed.

Series [3] deals with greenhouse red spider mite (Tetranychus urticae). The series is described as follows: Tetranychus test (OP-resistant/dip treatment). The format is in vivo. Conditions: 168 h, 100 ppm active compound, bean plants dipped, all stages, after 7 d, read-out: Efficacy in % after 7 d. As for the experimental part:
Tetranychus Test (OP-Resistant/Dip Treatment)
as §1
Bean plants (Phaseolus vulgaris) which are heavily infested by all stages of the greenhouse red spider mite (Tetranychus urticae) are treated by being dipped into a preparation of active compound of the desired, concentration.
After the desired period of time, the effect in % is determined. 100% means that all spider mites have been killed; 0% means that none of the spider mites have been killed.

A short description of series [4]: log P by HPLC (reversed-phase C18), acidic range pH 2.3. Conditions: reversed-phase C18 HPLC column; pH 2.3, 0.1% aqueous phosphoric acid/acetonitrile, 43° C. The format is physicochemical. On the procedure: The log P values given in the Tables and Preparation Examples above are determined in accordance with EEC Directive 79/831 Annex V.A8 by HPLC (High Performance Liquid Chromatography) using a reversed-phase column (C 18). Temperature: 43° C.
The determination in the acidic range is carried out at pH 2.3 using the mobile phases 0.1% aqueous phosphoric acid and acetonitrile; linear gradient from 10% acetonitrile to 90% acetonitrile. In the Tables, the values are marked a).
Calibration is carried out using unbranched alkan-2-ones (of 3 to 16 carbon atoms) with known log P values (determination of the log P values by retention times using linear interpolation between two successive alkanones).

The subject of series [5] is Heliothis armigera caterpillars. Nature of the series: Heliothis armigera test. Format: in vivo. Particulars: 100 ppm active compound, soya bean shoots dipped, kill after 7 d. On the procedure:
Solvent: 7 parts by weight of dimethylformamide
Emulsifier: 2 parts by weight of alkylaryl polyglycol ether
as §1
Soya bean shoots (Glycine max) are treated by being dipped into the preparation of active compound of the desired concentration and are populated with Heliothis armigera caterpillars while the leaves are still moist.
as §2

The subject of series [6] is larvae of the mustard beetle (Phaedon cochleariae). The series is described as follows: Phaedon larvae test. Format: in vivo. Conditions: cabbage leaves dipped, kill after 7 d. On the procedure: Phaedon Larvae Test [table] To produce a suitable preparation of active compound, 1 part by weight of active compound is mixed with the stated amounts of solvent and emulsifier, and the concentrate is diluted with emulsifier-containing water to the desired concentration. Cabbage leaves (Brassica oleracea) are treated by being dipped into the preparation of active compound of the desired concentration and are populated with larvae of the mustard beetle (Phaedon cochleariae) while the leaves are still moist.

[7] abbreviates: cabbage leaves dipped, kill after 7 d.
The mark [8] stands for this setting: 500 ppm active compound, cabbage leaves dipped, kill after 7 d.

Structures are written as SMILES. Like-named read-outs stand apart in the source and are kept apart here.

Turning to `Cc1cc2oc(-c3ccc(C4CCC(c5c(F)cccc5F)=N4)cc3)nc2c(C)c1Cl` (centres unmarked), the “Efficacy in % after 7 d” value in series [1] is on record as 98%.
On to `CNS(=O)(=O)c1cc2oc(-c3ccc(C4CCC(c5c(F)cccc5F)=N4)cc3)nc2cc1Cl` (centres unmarked), for which the “Efficacy in % after 7 d” value in series [1] came to 80%.
For the molecule `O=[N+]([O-])c1cc2oc(-c3ccc(C4CCC(c5c(F)cccc5F)=N4)cc3)nc2cc1Cl` (centres unmarked), in series [2] (in Brassica oleracea), the pest or weed control at 500 ppm amounted to 100%.
In the case of `Fc1cccc(F)c1C1=NC(c2ccc(-c3nc4cc(Cl)ccc4o3)cc2)CC1` (centres unmarked), the pest or weed control at 100 ppm in series [2] (setting [7]) came to 100%.
Take `Cc1ccccc1C1=NC(c2ccc(-c3nc4ccccc4o3)cc2)CC1` (centres unmarked): the pest or weed control at 100 ppm in series [2] (setting [7]) was 100%.
For `Fc1cccc(F)c1C1=NC(c2ccc(-c3nc4cc(Cl)cc(Cl)c4o3)cc2)CC1` (centres unmarked), the pest or weed control at 100 ppm in series [2] (setting [7]) was determined as 100%.
Take `Fc1cc(-c2nc3ccccc3o2)ccc1C1CCC(c2c(F)cccc2F)=N1` (centres unmarked): the pest or weed control at 100 ppm in series [3] was determined as 95%.
On to `Fc1cccc(F)c1C1=NC(c2ccc(-c3nc4cc(C(F)(F)F)cc(Cl)c4o3)cc2)CC1` (centres unmarked), for which the pest or weed control at 100 ppm in series [3] worked out at 95%.
Turning to `Fc1cccc(F)c1C1=NC(c2ccc(-c3nc4cc(C(F)(F)F)cc(C(F)(F)F)c4o3)cc2)CC1` (centres unmarked), in series [3], the pest or weed control at 100 ppm came out at 100%.
For orientation: chromatographic logP means lipophilicity estimated from chromatographic retention. Molecule `CC(C)(C)c1ccc2oc(-c3ccc(C4CCC(c5c(F)cccc5F)=N4)cc3)nc2c1` (centres unmarked) [Example 1, 5-tert-butyl-2-{4-[5-(2,6-difluorophenyl)-3,4-dihydro-2H-pyrrol-2-yl]phenyl}-1,3-benzoxazole] had a chromatographic logP in series [4] of 5.11.
`Fc1cccc(F)c1C1=NC(c2ccc(-c3nc4cc(SC(F)(F)F)ccc4o3)cc2)CC1` (centres unmarked) [Example 2] had a chromatographic logP in series [4] of 4.98.
With `Fc1cccc(F)c1C1=NC(c2ccc(-c3nc4ccccc4o3)cc2)CC1` (centres unmarked) [Example 3, 2-{4-[5-(2,6-difluorophenyl)-3,4-dihydro-2H-pyrrol-2-yl]phenyl}-1,3-benzoxazole], the chromatographic logP in series [4] is 3.22.
`Fc1cccc(F)c1C1=NC(c2ccc(-c3nc4ncccc4o3)cc2)CC1` (centres unmarked) [Example 4, 2-{4-[5-(2,6-difluorophenyl)-3,4-dihydro-2H-pyrrol-2-yl]-phenyl}[1,3]oxazole[4,5-b]pyridine] gave a chromatographic logP in series [4] of 2.06.
`Fc1ccc2nc(-c3ccc(C4CCC(c5c(F)cccc5F)=N4)cc3)oc2c1` (centres unmarked) [Example 5, 2-{4-[5-(2,6-difluorophenyl)-3,4-dihydro-2H-pyrrol-2-yl]phenyl}-6-fluoro-1,3-benzoxazole]: the chromatographic logP in series [4] amounted to 3.53.
In turn, `CC(C)(C)c1ccc(O)c(NC(=O)c2ccc(C3CCC(c4c(F)cccc4F)=N3)cc2)c1` (centres unmarked) [II-1, N-(5-tert-btyl-2-hydroxyphenyl)-4-[5-(2,6-difluorohenyl)-3,4-dihydro-2H-pyrrol-2-yl]benzamide] came in with a chromatographic logP in series [4] of 3.22.
`O=C(Nc1ncccc1O)c1ccc(C2CCC(c3c(F)cccc3F)=N2)cc1` (centres unmarked) [II-4, 4-[5-(2,6-difluorophenyl)-3,4-dihydro-2H-pyrrol-2-yl]-N-(3-hydroxy-2-pyridinyl)benzamide] yielded a chromatographic logP in series [4] of 1.16.
Consider `Fc1cccc(F)c1C1=NC(c2ccc(-c3nc4cc(C(F)(F)F)c(Cl)cc4o3)cc2)CC1` (centres unmarked) [drawing 27], for which, in series [5], the “Efficacy in % after 7 d” value is on record as 100%.
For the molecule `Fc1cccc(F)c1C1=NC(c2ccc(-c3nc4cc(OC(F)(F)F)ccc4o3)cc2)CC1` (centres unmarked) [drawing 28], the “Efficacy in % after 7 d” value in series [5] came to 100%.
In the case of `Fc1cccc(F)c1C1=NC(c2ccc(-c3nc4cc(-c5ccccc5)ccc4o3)cc2)CC1` (centres unmarked) [drawing 29], in series [5], the “Efficacy in % after 7 d” value is given as 100%.
Turning to `Fc1cc(-c2nc3cc(OC(F)(F)F)ccc3o2)ccc1C1CCC(c2c(F)cccc2F)=N1` (centres unmarked) [drawing 30], the “Efficacy in % after 7 d” value in series [5] was found to be 100%.
As for `Fc1cc(-c2nc3cc(Cl)ccc3o2)ccc1C1CCC(c2c(F)cccc2F)=N1` (centres unmarked) [drawing 31], the “Efficacy in % after 7 d” value in series [5] is reported as 100%.
As to `Fc1cccc(F)c1C1=NC(c2ccc(-c3nc4cc(C(F)(F)F)ccc4s3)cc2)CC1` (centres unmarked) [drawing 32], the “Efficacy in % after 7 d” value in series [5] came to 100%.
Consider `Fc1cccc(F)c1C1=NC(c2ccc(-c3nc4cc(Br)ccc4o3)cc2)CC1` (centres unmarked) [drawing 33], for which the “Efficacy in % after 7 d” value in series [5] is recorded as 100%.
Take `O=C(Nc1ncccc1O)c1ccc(C2CCC(c3c(F)cccc3F)=N2)cc1` (centres unmarked) [drawing 34]: the “Efficacy in % after 7 d” value in series [1] stood at 95%.
Consider `Fc1cccc(F)c1C1=NC(c2ccc(-c3nc4ccccc4s3)cc2)CC1` (centres unmarked) [drawing 35], for which the “Efficacy in % after 7 d” value in series [1] was determined as 80%.
In the case of `CC(C)(C)c1ccc2oc(-c3ccc(C4CCC(c5c(F)cccc5F)=N4)cc3)nc2c1` (centres unmarked) [drawing 39], the “Efficacy in % after 7 d” value in series [6] (500 ppm active compound) amounted to 100%.
On the same count and under the same terms, then `Fc1cccc(F)c1C1=NC(c2ccc(-c3nc4cc(SC(F)(F)F)ccc4o3)cc2)CC1` (centres unmarked) [drawing 40], with 100%.
Turning to `Fc1cccc(F)c1C1=NC(c2ccc(-c3nc4cc(C(F)(F)F)c(Cl)cc4o3)cc2)CC1` (centres unmarked) [drawing 41], the “Efficacy in % after 7 d” value in series [6] (100 ppm active compound) worked out at 100%.
As for `Fc1cccc(F)c1C1=NC(c2ccc(-c3nc4cc(OC(F)(F)F)ccc4o3)cc2)CC1` (centres unmarked) [drawing 42], the “Efficacy in % after 7 d” value in series [6] (100 ppm active compound) is 100%.
For `Fc1cccc(F)c1C1=NC(c2ccc(-c3nc4cc(-c5ccccc5)ccc4o3)cc2)CC1` (centres unmarked) [drawing 43], the “Efficacy in % after 7 d” value in series [6] (100 ppm active compound) is recorded as 100%.
On to `Fc1cc(-c2nc3cc(OC(F)(F)F)ccc3o2)ccc1C1CCC(c2c(F)cccc2F)=N1` (centres unmarked) [drawing 44], for which the “Efficacy in % after 7 d” value in series [6] (100 ppm active compound) amounted to 100%.
For the molecule `Fc1cc(-c2nc3cc(-c4ccccc4)ccc3o2)ccc1C1CCC(c2c(F)cccc2F)=N1` (centres unmarked) [drawing 45], the “Efficacy in % after 7 d” value in series [6] (100 ppm active compound) stood at 100%.
`Fc1cccc(F)c1C1=NC(c2ccc(-c3nc4ccccc4o3)cc2)CC1` (centres unmarked) [drawing 48]: the pest or weed control at 500 ppm in series [2] (in Brassica oleracea) was determined as 100%.
`Fc1cccc(F)c1C1=NC(c2ccc(-c3nc4ncccc4o3)cc2)CC1` (centres unmarked) [drawing 49]: the pest or weed control at 500 ppm in series [2] (setting [8]) was 100%.
Take `CC(C)(C)c1ccc2oc(-c3ccc(C4CCC(c5c(F)cccc5F)=N4)cc3)nc2c1` (centres unmarked) [drawing 50]: in series [2] (setting [8]), the pest or weed control at 500 ppm was determined as 100%.
As for `Fc1cccc(F)c1C1=NC(c2ccc(-c3nc4cc(SC(F)(F)F)ccc4o3)cc2)CC1` (centres unmarked) [drawing 52], the pest or weed control at 500 ppm in series [2] (setting [8]) is 100%.
On the same count and under the same terms, then `Fc1ccc2nc(-c3ccc(C4CCC(c5c(F)cccc5F)=N4)cc3)oc2c1` (centres unmarked) [drawing 54], with 100%.
`CC(C)(C)c1ccc(O)c(NC(=O)c2ccc(C3CCC(c4c(F)cccc4F)=N3)cc2)c1` (centres unmarked) [drawing 55]: the pest or weed control at 500 ppm in series [2] (setting [8]) is 100%.
Consider `CN(C)S(=O)(=O)c1cc2oc(-c3ccc(C4CCC(c5c(F)cccc5F)=N4)cc3)nc2cc1Cl` (centres unmarked) [drawing 58], for which, in series [2] (setting [7]), the pest or weed control at 100 ppm worked out at 100%.
As to `Fc1cc(-c2nc3cc(Cl)ccc3o2)ccc1C1CCC(c2c(F)cccc2F)=N1` (centres unmarked) [drawing 59], the pest or weed control at 100 ppm in series [2] (setting [7]) worked out at 100%.
`Fc1cccc(F)c1C1=NC(c2ccc(-c3nc4cc(C(F)(F)F)ccc4s3)cc2)CC1` (centres unmarked) [drawing 60]: in series [2] (setting [7]), the pest or weed control at 100 ppm came to 100%.
Regarding `Fc1cccc(F)c1C1=NC(c2ccc(-c3nc4cc(C(F)(F)F)c(Cl)cc4o3)cc2)CC1` (centres unmarked) [drawing 63], the pest or weed control at 100 ppm in series [3] came to 98%.
For the molecule `CN(C)S(=O)(=O)c1cc2oc(-c3ccc(C4CCC(c5c(F)cccc5F)=N4)cc3)nc2cc1Cl` (centres unmarked) [drawing 64], the pest or weed control at 100 ppm in series [3] is 90%.
As for `Fc1cccc(F)c1C1=NC(c2ccc(-c3nc4ccccc4s3)cc2)CC1` (centres unmarked) [drawing 65], in series [3], the pest or weed control at 100 ppm stood at 99%.
With `Fc1cc(-c2nc3cc(Cl)ccc3o2)ccc1C1CCC(c2c(F)cccc2F)=N1` (centres unmarked) [drawing 67], the pest or weed control at 100 ppm in series [3] came to 95%.
As for `Fc1cc(-c2nc3cc(-c4ccccc4)ccc3o2)ccc1C1CCC(c2c(F)cccc2F)=N1` (centres unmarked) [drawing 68], the pest or weed control at 100 ppm in series [3] turned out to be 99%.
On to `Fc1cccc(F)c1C1=NC(c2ccc(-c3nc4cc(C(F)(F)F)ccc4s3)cc2)CC1` (centres unmarked) [drawing 69], for which the pest or weed control at 100 ppm in series [3] is 90%.

For the origin of these results see patent publication US20050124497A1, “Delta1-pyrrolines and their use as pest control agents” (priority 2002, published 2005).
